In one test the target is T1, ADAR1p150 (Homo sapiens, UniProt P55265).
T1 construct: a full-length interferon-inducible p150 and a shorter N-terminus truncated p110
T1 sequence (P55265 1-1226): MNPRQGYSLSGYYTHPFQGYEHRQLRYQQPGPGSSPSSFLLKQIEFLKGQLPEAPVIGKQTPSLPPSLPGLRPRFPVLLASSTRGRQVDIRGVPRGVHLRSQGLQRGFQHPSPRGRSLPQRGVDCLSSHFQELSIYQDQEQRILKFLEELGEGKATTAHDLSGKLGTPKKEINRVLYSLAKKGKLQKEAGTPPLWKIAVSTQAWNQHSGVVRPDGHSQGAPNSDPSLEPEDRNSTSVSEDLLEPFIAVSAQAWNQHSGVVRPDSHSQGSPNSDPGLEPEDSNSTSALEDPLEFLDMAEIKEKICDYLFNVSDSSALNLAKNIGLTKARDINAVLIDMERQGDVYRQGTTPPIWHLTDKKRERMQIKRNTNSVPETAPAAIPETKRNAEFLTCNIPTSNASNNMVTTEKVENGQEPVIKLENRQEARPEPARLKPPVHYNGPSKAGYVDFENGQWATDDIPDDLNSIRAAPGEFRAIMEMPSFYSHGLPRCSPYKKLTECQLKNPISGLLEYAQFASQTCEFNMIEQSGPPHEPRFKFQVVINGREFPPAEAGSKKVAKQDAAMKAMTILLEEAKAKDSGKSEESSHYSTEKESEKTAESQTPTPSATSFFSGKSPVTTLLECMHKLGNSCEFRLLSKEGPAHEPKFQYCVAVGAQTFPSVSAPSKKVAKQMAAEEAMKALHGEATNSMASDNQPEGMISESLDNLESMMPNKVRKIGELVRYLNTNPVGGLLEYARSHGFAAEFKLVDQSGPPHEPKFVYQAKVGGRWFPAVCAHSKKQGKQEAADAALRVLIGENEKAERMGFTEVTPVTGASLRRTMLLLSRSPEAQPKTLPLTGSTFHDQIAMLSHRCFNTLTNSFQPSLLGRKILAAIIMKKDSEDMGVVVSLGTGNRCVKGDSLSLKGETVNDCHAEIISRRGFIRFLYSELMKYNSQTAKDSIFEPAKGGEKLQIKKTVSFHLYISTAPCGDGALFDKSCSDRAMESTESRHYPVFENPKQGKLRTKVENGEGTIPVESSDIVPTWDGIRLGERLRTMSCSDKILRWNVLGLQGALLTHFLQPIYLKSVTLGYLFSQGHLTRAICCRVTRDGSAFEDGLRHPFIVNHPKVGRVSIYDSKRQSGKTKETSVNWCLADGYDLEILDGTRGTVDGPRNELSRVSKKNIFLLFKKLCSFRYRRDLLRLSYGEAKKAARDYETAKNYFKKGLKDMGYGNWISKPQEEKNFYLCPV
The test can be described thus: in vitro editing assay, ADAR1p150. It is filed as biochemical. The settings on record: dsRNAs (matched, mismatched) and DNA:RNA hybrids; not shown. On the procedure: We conducted in vitro editing assay at varying concentrations of Compound #13 with dsRNAs (matched, mismatched) and DNA:RNA hybrids, resulting in determination of IC50 values for ADAR1p110 and ADAR1p150 (not shown) in 7-40 μM ranges: examples of such experiments done for dsRNA are shown (FIG. 8). […] In vivo ADAR1 inhibitory effects in HeLa cells were examined by cDNA sequencing of RT-PCR products of known ADAR1 target RNAs. One example of analysis of such ADAR1 target sites located within the 3′UTR Alu dsRNA of TMPO mRNAs is shown (FIGS. 28A and 28B). This particular ADAR1 target site is highly edited in HeLa cells, more than 80%. Compound #13 inhibited this ADAR1 target site editing down to 0% (FIGS. 28A and 28B).

In test [1] the test system is HeLa cells. The test is described as follows: Apo Tox-Glo viability assay, HeLa cells. In kind it is cell-based, human. On the procedure:
(§1) HeLa, U2OS, and MRI90 cells were cultured in the presence of ADAR1 inhibitors, 5 μM or 20 μM, for 3 days. Their viability was examined using the Apo Tox-Glo assay system (Promega), which measures plasma membrane penetration of glycyl-phenyl-alanyl-aminofluorocoumarin peptide. Control, 0.3% DMSO. […] Data are mean±S.D. (n=3, biological replicates).
(§2) FIGS. 29A-29D Characterization of Compound #13 effects in cancer cells. […] Viability was examined using the Apo Tox-Glo assay system (Promega). Control, 0.3% DMSO. (FIG. 29B) Western blotting analysis of HeLa cells treated with Compound #13 (10 μM). […] (FIG. 29D) Activation of the IFN signaling pathway. HSC-4 squamous carcinoma cells were treated with Compound #13 at 10 μM (12 hrs). RNA samples were analyzed by qRT-PCR to monitor expression levels of ISGs.

The test system of test [2] is IMR90 normal fibroblast cells. The test is described as follows: Apo Tox-Glo viability assay, IMR90 normal fibroblast cells. In kind it is cell-based. To be noted: 5 μM, 3 days. The procedure:
as §1, §2

In test [3] the test system is HeLa cells. The test can be described thus: dot blot analysis for RNA:DNA hybrids in HeLa cells. In kind it is cell-based, human. The settings on record: 10 μM. On the procedure: as §2
Dot blot analysis of genomic DNA Cells were treated with siRNA for 72 h in a 10 cm dish, detached from the dish surface with TrypLE Express Enzyme, and harvested by centrifugation. After PBS wash, genomic DNA was purified using QIAGEN Blood & Cell Culture DNA Midi Kit. Briefly, the cell pellet was resuspended in buffer C1. After repeated buffer C1 wash and removal of the cell debris, the nuclear pellet was resuspended in buffer G2 (without rNase A) and treated with 2 mg of proteinase K at 50° C. for 60 min. The nuclear fraction was applied to a buffer QBT-treated QIAGEN Genomic-tip and washed twice with buffer QC. […]
Genomic DNA was diluted in 100 μl of 6× saline sodium citrate (SSC) and spotted onto a Hybond N^+ (GE Healthcare) using a Bio-Dot Apparatus (#1706545, Bio-Rad). […] After washing four times with PBST, dot signals were detected with ECL (GE Healthcare) using X-ray films. […]

Each structure is given as a SMILES string. Entries after “also recorded” stand apart in the source; their conditions may differ.

Data on 1 molecule can be found in patent US20250066864A1, “METHODS FOR IDENTIFYING ADAR1 INHIBITORS, AND COMPOSITIONS AND METHODS OF USE IN TREATING CANCER” (The Wistar Institute of Anatomy and Biology, priority 2021, published 2025).

Consider `N#Cc1ccc(NC(=O)c2sc3ccccc3c2Cl)cc1` [Compound #13, 3-chloro-N-(4-cyanophenyl)-1-benzothiophene-2-carboxamide], for which the IC50 (as a rule, the concentration that gives 50% inhibition) against ADAR1p150 was 7 to 40 µM. In addition, in the test with HeLa cells [1] (5 μM, 3 days), the “viability of HeLa (non-ALT) cells” value is on record as “significantly decreased viability; also recorded: significantly reduced viability”. Besides, the “viability of HeLa non-ALT cancer cells” value in the test on HeLa cells [1] (10 μM, FIG. 29A) is “killed selectively; also recorded: selectively reduced viability”. For the same molecule, the “viability of MRI90 (normal fibroblast) cells” value in test [2] was “very little effects”. The “formation of R-loops (RNA:DNA hybrids)” value in the test on HeLa cells [3] is “increased formation of R-loops; also recorded: RNA:DNA hybrids induced”.
